Data from patent US12522588B2, “Herbicidal compounds” (SYNGENTA CROP PROTECTION AG, priority 2020, dated 2026).

Tests used:
Type in all cases: in vivo
[1] = test system: Abutilon theophrasti (ABUTH); test: Post-emergence test, glasshouse; settings: 250 g/ha
Description: (§1) Seeds of a variety of test species are sown in standard soil in pots Amaranthus retoflexus (AMARE), Abutilon theophrasti (ABUTH), Setaria faberi (SETFA), Echinochloa crus-galli (ECHCG), Ipomoea hederacea (IPOHE)). After cultivation for one day (pre-emergence) or after 8 days cultivation (post-emergence) under controlled conditions in a glasshouse (at 24/16° C., day/night; 14 hours light; 65% humidity), the plants are sprayed with an aqueous spray solution derived from the formulation of the technical active ingredient in acetone/water (50:50) solution containing 0.5% Tween 20 (polyoxyethelyene sorbitan monolaurate, CAS RN 9005-64-5). Compounds are applied at 250 g/ha unless otherwise stated. The test plants are then grown in a glasshouse under controlled conditions in a glasshouse (at 24/16° C., day/night; 14 hours light; 65% humidity) and watered twice daily. After 13 days for pre and post-emergence, the test is evaluated for the percentage damage caused to the plant. The biological activities are shown in the following table on a five-point scale (5=81-100%; 4=61-80%; 3=41-60%; 2=21-40%; 1=0-20%).

[2] = test system: Amaranthus retoflexus (AMARE); test: Post-emergence test, glasshouse; settings: 250 g/ha
Description: as §1

[3] = test system: Echinochloa crus-galli (ECHCG); test: Post-emergence test, glasshouse; settings: 250 g/ha
Description: as §1

[4] = test system: Ipomoea hederacea (IPOHE); test: Post-emergence test, glasshouse; settings: 250 g/ha
Description: as §1

Setaria faberi (SETFA) [5] = test: Post-emergence test, glasshouse; settings: 250 g/ha
Description: as §1

[6] = test system: Abutilon theophrasti (ABUTH); test: Pre-emergence test, glasshouse; settings: 250 g/ha; for percentage damage caused to the plant, ABUTH: evaluated after 13 days, Table B2; for percentage damage caused to the plant, LABUTH: comparative test
Description: as §1

[7] = test system: Amaranthus retoflexus (AMARE); test: Pre-emergence test, glasshouse; settings: 250 g/ha
Description: as §1

[8] = test system: Echinochloa crus-galli (ECHCG); test: Pre-emergence test, glasshouse; settings: 250 g/ha
Description: as §1

[9] = test system: Ipomoea hederacea (IPOHE); test: Pre-emergence test, glasshouse; settings: 250 g/ha
Description: as §1

Setaria faberi (SETFA) [10] = test: Pre-emergence test, glasshouse; settings: 250 g/ha
Description: as §1

[11] = evaluated after 13 days, Table B1
[12] = evaluated after 13 days, Table B2

| SMILES | percentage damage caused to the plant, ABUTH [1, 11] | percentage damage caused to the plant, AMARE [2, 11] | percentage damage caused to the plant, ECHCG [3, 11] | percentage damage caused to the plant, IPOHE [4, 11] | percentage damage caused to the plant, SETFA (Setaria faberi (SETFA) [5]; [11]) | percentage damage caused to the plant, ABUTH [6] | percentage damage caused to the plant, AMARE [7, 12] | percentage damage caused to the plant, ECHCG [8, 12] | percentage damage caused to the plant, IPOHE [9, 12] | percentage damage caused to the plant, SETFA (Setaria faberi (SETFA) [10]; [12]) | percentage damage caused to the plant, ABUTH ([1]; comparative test) | percentage damage caused to the plant, AMARE ([2]; comparative test) | percentage damage caused to the plant, ECHCG ([3]; comparative test) | percentage damage caused to the plant, IPOHE ([4]; comparative test) | percentage damage caused to the plant, SETFA (Setaria faberi (SETFA) [5]; comparative test) | percentage damage caused to the plant, LABUTH [6] | percentage damage caused to the plant, AMARE ([7]; comparative test) | percentage damage caused to the plant, ECHCG ([8]; comparative test) | percentage damage caused to the plant, IPOHE ([9]; comparative test) | percentage damage caused to the plant, SETFA (Setaria faberi (SETFA) [10]; comparative test) |
| --- | --- | --- | --- | --- | --- | --- | --- | --- | --- | --- | --- | --- | --- | --- | --- | --- | --- | --- | --- | --- |
| FC(F)(F)c1cccc(-n2nc(C(F)(F)F)cc2Oc2ncc(Cl)cn2)c1 [Compound 1.003] | 1 (1=0-20%) | 5 (5=81-100%) | 1 (1=0-20%) | 2 (2=21-40%) | 3 (3=41-60%) | 1 (1=0-20%) | 5 (5=81-100%) | 2 (2=21-40%) | 1 (1=0-20%) | 5 (5=81-100%) |  |  |  |  |  |  |  |  |  |  |
| Cc1ccc(-n2nc(C(F)(F)F)cc2Oc2ncc(Cl)cn2)nn1 [Compound 1.012] | 1 (1=0-20%) | 2 (2=21-40%) | 1 (1=0-20%) | 1 (1=0-20%) | 1 (1=0-20%) | 1 (1=0-20%) | 3 (3=41-60%) | 1 (1=0-20%) | 1 (1=0-20%) | 1 (1=0-20%) |  |  |  |  |  |  |  |  |  |  |
| FC(F)c1cc(Oc2ncc(Cl)cn2)n(-c2ccc(C(F)(F)F)cc2)n1 [Compound 1.005] | 3 (3=41-60%) | 5 (5=81-100%) | 1 (1=0-20%) | 2 (2=21-40%) | 2 (2=21-40%) | 1 (1=0-20%) | 4 (4=61-80%) | 1 (1=0-20%) | 1 (1=0-20%) | 2 (2=21-40%) |  |  |  |  |  |  |  |  |  |  |
| FC(F)(F)c1cc(Oc2ncc(Cl)cn2)n(-c2cccc(Cl)c2)n1 [Compound 1.004] | 1 (1=0-20%) | 5 (5=81-100%) | 3 (3=41-60%) | 4 (4=61-80%) | 3 (3=41-60%) | 1 (1=0-20%) | 5 (5=81-100%) | 2 (2=21-40%) | 1 (1=0-20%) | 3 (3=41-60%) |  |  |  |  |  |  |  |  |  |  |
| Cc1cc(Oc2ncc(Cl)cn2)n(-c2ccc(Cl)cc2)n1 [Compound C2, reference compound] |  |  |  |  |  |  |  |  |  |  | 1 (1=0-20%) | 3 (3=41-60%) | 2 (2=21-40%) | 1 (1=0-20%) | 2 (2=21-40%) | 1 (1=0-20%) | 1 (1=0-20%) | 1 (1=0-20%) | 1 (1=0-20%) | 1 (1=0-20%) |
| FC(F)(F)c1cc(Oc2ncc(Cl)cn2)n(-c2ccc(Cl)cc2)n1 [Compound 1.002] | 3 (3=41-60%) | 5 (5=81-100%) | 5 (5=81-100%) | 4 (4=61-80%) | 5 (5=81-100%) | 2 (2=21-40%) | 5 (5=81-100%) | 5 (5=81-100%) | 1 (1=0-20%) | 5 (5=81-100%) | 3 (3=41-60%) | 5 (5=81-100%) | 5 (5=81-100%) | 4 (4=61-80%) | 5 (5=81-100%) | 2 (2=21-40%) | 5 (5=81-100%) | 5 (5=81-100%) | 1 (1=0-20%) | 5 (5=81-100%) |
